Experimental data published in ChEMBL document CHEMBL4033634, “Synthesis and biological evaluation of novel aromatic and heterocyclic bis-sulfonamide Schiff bases as carbonic anhydrase I, II, VII and IX inhibitors” (Bioorg Med Chem, 2017).

The compounds below were run against Carbonic anhydrase 9 (Homo sapiens, UniProt Q16790) (assay: Inhibition of human carbonic anhydrase 9 incubated for 10 mins by stopped flow CO2 hydrase assay).

| Ki | Structure (SMILES) |
| --- | --- |
| 21.8 nM | NS(=O)(=O)c1ccc(/N=C/c2ccccc2/C=N/c2ccc(S(N)(=O)=O)cc2)cc1 |
| 5.8 nM | NS(=O)(=O)c1nnc(/N=C/c2ccccc2/C=N/c2nnc(S(N)(=O)=O)s2)s1 |
| 89.6 nM | NS(=O)(=O)c1cccc(/N=C/c2ccccc2/C=N/c2cccc(S(N)(=O)=O)c2)c1 |
| 17.9 nM | NS(=O)(=O)c1ccc(CC/N=C/c2ccccc2/C=N/CCc2ccc(S(N)(=O)=O)cc2)cc1 |
| 0.5 nM | NS(=O)(=O)c1nnc(/N=C/c2cccc(/C=N/c3nnc(S(N)(=O)=O)s3)c2)s1 |
| 1470 nM | NS(=O)(=O)c1cccc(/N=C/c2ccc(/C=N/c3cccc(S(N)(=O)=O)c3)cc2)c1 |
| 261 nM | NS(=O)(=O)c1ccc(CC/N=C/c2ccc(/C=N/CCc3ccc(S(N)(=O)=O)cc3)cc2)cc1 |
| 319 nM | NS(=O)(=O)c1ccc(CC/N=C/c2cccc(/C=N/CCc3ccc(S(N)(=O)=O)cc3)c2)cc1 |
| 678 nM | NS(=O)(=O)c1cccc(/N=C/c2cccc(/C=N/c3cccc(S(N)(=O)=O)c3)c2)c1 |
| 5.9 nM | NS(=O)(=O)c1nnc(/N=C/c2ccc(/C=N/c3nnc(S(N)(=O)=O)s3)o2)s1 |
| 93.1 nM | NS(=O)(=O)c1ccc(/N=C/c2cccc(/C=N/c3ccc(S(N)(=O)=O)cc3)c2)cc1 |
| 76.2 nM | NS(=O)(=O)c1ccc(/N=C/c2ccc(/C=N/c3ccc(S(N)(=O)=O)cc3)o2)cc1 |
| 516 nM | NS(=O)(=O)c1cccc(/N=C/c2ccc(/C=N/c3cccc(S(N)(=O)=O)c3)o2)c1 |
| 934 nM | NS(=O)(=O)c1ccc(/N=C/c2ccc(/C=N/c3ccc(S(N)(=O)=O)cc3)cc2)cc1 |
| 153 nM | NS(=O)(=O)c1ccc(CC/N=C/c2ccc(/C=N/CCc3ccc(S(N)(=O)=O)cc3)o2)cc1 |
| 25.2 nM | NS(=O)(=O)c1nnc(/N=C/c2ccc(/C=N/c3nnc(S(N)(=O)=O)s3)cc2)s1 |

Each compound was assayed against Carbonic anhydrase 1 (Homo sapiens, UniProt P00915) (assay: Inhibition of human carbonic anhydrase 1 incubated for 10 mins by stopped flow CO2 hydrase assay).
Sequence of Carbonic anhydrase 1 (P00915 whole entry): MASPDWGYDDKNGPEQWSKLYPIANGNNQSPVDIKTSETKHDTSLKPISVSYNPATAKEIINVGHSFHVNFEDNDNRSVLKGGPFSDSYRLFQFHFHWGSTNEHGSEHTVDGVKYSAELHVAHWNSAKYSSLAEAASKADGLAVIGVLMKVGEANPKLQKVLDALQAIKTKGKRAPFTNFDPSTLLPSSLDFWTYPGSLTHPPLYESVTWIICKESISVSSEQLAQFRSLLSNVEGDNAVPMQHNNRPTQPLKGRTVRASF

| Ki | Structure (SMILES) |
| --- | --- |
| > 10000 nM | NS(=O)(=O)c1cccc(/N=C/c2ccc(/C=N/c3cccc(S(N)(=O)=O)c3)o2)c1 |
